In US6608083B1, “Quinoline derivatives(2)” (SmithKline Beecham Farmaceutici S.p.A, priority 1994, dated 2003) one finds melting point and Ki data, which are given here for 63 compounds.

Structures can show the parent of a compound that is named as a salt.

The term melting point denotes the temperature of the solid-liquid transition. Broadly, the Ki is the dissociation constant of the complex between target and ligand, obtained from inhibition or displacement.

System in the first data set: not given
Experiment: not given
The compound `O=C(NC(c1ccccc1)C(F)(F)F)c1cc(-c2ccccc2)nc2ccccc12` (stereo not drawn) [Example 46] gave a melting point of 180 to 181 °C.
As to `CCC(NC(=O)c1c(C)c(-c2ccc(Br)cc2)nc2ccc(Br)cc12)c1ccccc1` (stereo not drawn) [Example 41], the melting point lay within 230 to 231 °C.
Same read-out and setting: as for `COC(=O)C(NC(=O)c1cc(-c2cccc(Cl)c2)nc2ccccc12)c1ccccc1` (stereo not drawn) [Example 77], the figure is 161 to 163 °C; as for `COC(=O)C(NC(=O)c1cc(-c2ccccc2)nc2ccccc12)C1=CCC=CC1` (stereo not drawn) [Example 16], 120 to 122 °C; as for `CCCc1c(-c2ccccc2)nc2ccccc2c1C(=O)NC(CC)c1ccccc1` (stereo not drawn) [Example 40], 149 to 151 °C.
Compound `COC(=O)C(NC(=O)c1cc(-c2cc[nH]c2)nc2ccccc12)c1ccccc1` (stereo not drawn) [Example 66] registered a melting point of 202 to 204 °C.
For `O=C(NC(C(=O)O)c1ccccc1)c1cc(-c2ccccc2)nc2ccccc12` (stereo not drawn) (as salt: HCl) [Example 92], the melting point fell in the range of 203 to 205 °C.
Same read-out and setting: to `COC(=O)C(NC(=O)c1c(O)c(-c2ccccc2)nc2ccccc12)c1ccccc1` (stereo not drawn) [Example 87] belongs 125 to 127 °C; to `COC(=O)C(c1ccccc1)N(C)C(=O)c1cc(-c2ccccc2)nc2ccccc12` (stereo not drawn) [Example 50], 128 to 129 °C; to `CN(C)C(=O)C(NC(=O)c1cc(-c2ccccc2)nc2ccccc12)c1ccccc1` (stereo not drawn) [Example 89], 219 to 221 °C.
On the same count and under the same terms, as for `CCCCC(NC(=O)c1cc(-c2ccccc2)nc2ccccc12)c1ccccc1` (stereo not drawn) [Example 56], the figure is 155 to 156 °C.
On the same count and under the same terms, as for `CC(C)C(NC(=O)c1cc(-c2ccccc2)nc2ccccc12)c1ccccc1` (stereo not drawn) [Example 72], the figure is 165 to 166 °C.
`COC(=O)C(NC(=O)c1cc(-c2ccccc2)nc2c(O)cccc12)c1ccccc1` (stereo not drawn) [Example 81]: the melting point fell in the range of 178 to 180 °C.
`COC(=O)C(NC(=O)c1cc(-c2ccccc2)nc2ccc(C)cc12)c1ccccc1` (stereo not drawn) [Example 33] showed a melting point of 179 to 181 °C.
Same read-out and setting: as for `COC(=O)C(NC(=O)c1cc(-c2ccsc2)nc2ccccc12)c1ccccc1` (stereo not drawn) [Example 51], the figure is 169 to 171 °C; as for `COC(=O)C(NC(=O)c1c2c(nc3ccccc13)-c1ccccc1CC2)c1ccccc1` (stereo not drawn) [Example 52], 217 to 219 °C.
On the same count and under the same terms, as for `CCC(NC(=O)c1cc(-c2ccccc2)nc2ccccc12)c1ccc(Cl)c(Cl)c1` (stereo not drawn) [Example 27], the figure is 193 to 194 °C.
The same measure, in the same setting: as for `COC(=O)C(NC(=O)c1cc(-c2ccccc2)nc2ccc(Cl)cc12)c1ccccc1` (stereo not drawn) [Example 35], the figure is 197 to 199 °C; as for `COC(=O)C(NC(=O)c1cc(C2CCCCC2)nc2ccccc12)c1ccccc1` (stereo not drawn) [Example 76], 151 to 153 °C; as for `COC(=O)C(NC(=O)c1cc(-c2ccccc2Cl)nc2ccccc12)c1ccccc1` (stereo not drawn) [Example 78], 175 to 178 °C.
For the compound `COC(=O)C(NC(=O)c1cc(-c2ccc3c(c2)OCO3)nc2ccccc12)c1ccccc1` (stereo not drawn) [Example 63], the melting point was 186 to 187 °C.
The same measure, in the same setting: to `COC(=O)C(NC(=O)c1c2c(nc3ccccc13)-c1ccccc1CCC2)c1ccccc1` (stereo not drawn) [Example 20] belongs 186 to 188 °C.
Same read-out and setting: to `COC(=O)[C@H](NC(=O)c1cc(-c2ccccc2)nc2ccccc12)c1ccc(O)cc1.Cl` belongs 140 °C (dec.).
Take `COC(=O)C(NC(=O)c1cc(-c2ccccc2)nc2c(OC(C)=O)cccc12)c1ccccc1` (stereo not drawn) [Example 80]: the melting point lay within 193 to 194 °C.
The compound `COC(=O)C(NC(=O)c1cc(-c2cc3ccccc3o2)nc2ccccc12)c1ccccc1` (stereo not drawn) [Example 44] had a melting point of 240 to 241 °C.
The same measure, in the same setting: as for `O=C(NC(Cc1ccccc1)c1ccccc1)c1cc(-c2ccccc2)nc2ccccc12` (stereo not drawn) [Example 45], the figure is 194 to 196 °C; as for `COC(=O)C(NC(=O)c1cc(-c2ccccc2)nc2ccc(F)cc12)c1ccccc1` (stereo not drawn) [Example 75], 174 to 176 °C.
On the same count and under the same terms, to `COC(=O)C(NC(=O)c1cc(-c2ccc[nH]2)nc2ccccc12)c1ccccc1` (stereo not drawn) [Example 53] belongs 181 to 182 °C; to `CCC(NC(=O)c1c(Cl)c(-c2ccccc2)nc2ccccc12)c1ccccc1` (stereo not drawn) [Example 70], 137 to 139 °C; to `O=C(NC(C(=O)N1CCCC1)c1ccccc1)c1cc(-c2ccccc2)nc2ccccc12` (stereo not drawn) [Example 91], 199 to 200 °C.
Same read-out and setting: to `NCC(NC(=O)c1cc(-c2ccccc2)nc2ccccc12)c1ccccc1` (stereo not drawn) [Example 68] belongs 139 to 141 °C.
Regarding `COC(=O)C(NC(=O)c1cc(-c2ccccc2)nc2ccc(OC)cc12)c1ccccc1` (stereo not drawn) [Example 43], the melting point lay within 209 to 211 °C.
`COC(=O)C(NC(=O)c1c(C)c(-c2ccccc2)nc2ccccc12)c1ccccc1` (stereo not drawn) [Example 30] displayed a melting point of 180 to 181 °C.
`CCC(NC(=O)c1c(OC)c(-c2ccccc2)nc2ccccc12)c1ccccc1` (stereo not drawn) [Example 18] had a melting point of 163 to 165 °C.
Still for that read-out and setting: as for `COC(=O)C(NC(=O)c1cc(-c2ccccc2)nc2cc(Cl)ccc12)c1ccccc1` (stereo not drawn) [Example 32], the figure is 180 to 183 °C.
On the same count and under the same terms, to `CCCCc1c(-c2ccccc2)nc2ccccc2c1C(=O)NC(CC)c1ccccc1` (stereo not drawn) [Example 19] belongs 147 to 150 °C; to `CN(C)CC(NC(=O)c1cc(-c2ccccc2)nc2ccccc12)c1ccccc1` (stereo not drawn) [Example 88], 133 to 135 °C; to `COC(=O)C(NC(=O)c1cc(-c2ccc(Cl)c(Cl)c2)nc2ccccc12)c1ccccc1` (stereo not drawn) [Example 67], 164 to 165 °C.
As to `COC(=O)C(NC(=O)c1cc(-c2ccccc2C)nc2ccccc12)c1ccccc1` (stereo not drawn) [Example 59], the melting point was in the range of 180 to 182 °C.
Take `CC(C)(NC(=O)c1cc(-c2ccccc2)nc2ccccc12)c1ccccc1` [Example 64]: the melting point lay in the range of 173 to 174 °C.
In the case of `CCc1c(-c2ccccc2)nc2ccccc2c1C(=O)NC(CC)c1ccccc1` (stereo not drawn) [Example 38], the melting point lay in the range of 158 to 159 °C.
Turning to `CCC(NC(=O)c1c(N2C(=O)c3ccccc3C2=O)c(-c2ccccc2)nc2ccccc12)c1ccccc1` (stereo not drawn) [Example 39], the melting point lay within 201 to 202 °C.
Same read-out and setting: to `CCc1c(-c2ccccc2)nc2ccccc2c1C(=O)NC(C(=O)OC)c1ccccc1` (stereo not drawn) [Example 36] belongs 156 to 157 °C.
For the compound `CCC(NC(=O)c1cc(-c2ccccc2)nc2ccccc12)c1ccc(Cl)cc1` (stereo not drawn) [Example 49], the melting point is 177 to 178 °C.
Same read-out and setting: to `COC(=O)C(NC(=O)c1cc(-c2ccccc2OC)nc2ccccc12)c1ccccc1` (stereo not drawn) [Example 24] belongs 124 to 125 °C.
Same read-out and setting: as for `O=C(NC(c1ccccc1)c1ccccc1)c1cc(-c2ccccc2)nc2ccccc12` [Example 84], the figure is 182 to 184 °C; as for `CCC(NC(=O)c1c(-c2ccccc2)c(-c2ccccc2)nc2ccccc12)c1ccccc1` (stereo not drawn) [Example 25], 198 to 200 °C.
With `CCCC(NC(=O)c1cc(-c2ccccc2)nc2ccccc12)c1ccccc1` (stereo not drawn) [Example 37], the melting point lay in the range of 149 to 150 °C.
Same read-out and setting: as for `NC(=O)C(NC(=O)c1cc(-c2ccccc2)nc2ccccc12)c1ccccc1` (stereo not drawn) [Example 90], the figure is 237 to 238 °C.
`COCC(NC(=O)c1cc(-c2ccccc2)nc2ccccc12)c1ccccc1` (stereo not drawn) [Example 34] displayed a melting point of 144 to 145 °C.
Regarding `COC(=O)C(NC(=O)c1cc(-c2nccs2)nc2ccccc12)c1ccccc1` (stereo not drawn) [Example 54], the melting point lay within 209 to 211 °C.
The same measure, in the same setting: to `COC(=O)C(NC(=O)c1cc(-c2ccc(OC)cc2)nc2ccccc12)c1ccccc1` (stereo not drawn) [Example 60] belongs 182 to 183 °C; to `COC(=O)C(NC(=O)c1cc(-c2ccccc2F)nc2ccccc12)c1ccccc1` (stereo not drawn) [Example 26], 146 to 147 °C.
In the case of `O=C(NC(CO)c1ccccc1)c1cc(-c2ccccc2)nc2ccccc12` (stereo not drawn) [Example 28], the melting point was 117 to 119 °C.
On the same count and under the same terms, to `CCC(NC(=O)c1c(C)c(-c2ccccc2)nc2ccc(Br)cc12)c1ccccc1` (stereo not drawn) [Example 42] belongs 179 to 180 °C.
Still for that read-out and setting: as for `CCC(NC(=O)c1cc(-c2ccccc2)nc2ccccc12)c1ccc(C)cc1` (stereo not drawn) [Example 65], the figure is 160 to 162 °C; as for `C[C@H](O)[C@H](NC(=O)c1cc(-c2ccccc2)nc2ccccc12)c1ccccc1` [Example 17, (R,S)-N-[α-(1-hydroxyethyl)benzyl]-2-phenylquinoline-4-carboxamide], 204 to 205 °C.
`COC(=O)C(NC(=O)c1cc(-c2ccc(C)cc2)nc2ccccc12)c1ccccc1` (stereo not drawn) [Example 57]: the melting point lay in the range of 172 to 174 °C.
With `O=C(NC1(c2ccccc2)CCCC1)c1cc(-c2ccccc2)nc2ccccc12` [Example 61], the melting point fell in the range of 164 to 165 °C.
In the case of `COC(=O)C(NC(=O)c1cc(-c2ccc(O)cc2)nc2ccccc12)c1ccccc1` (stereo not drawn) [Example 62], the melting point is 226 to 227 °C.
Same read-out and setting: as for `COC(=O)C(NC(=O)c1cc(-c2ccc(Cl)cc2Cl)nc2ccccc12)c1ccccc1` (stereo not drawn) [Example 82], the figure is 142 to 143 °C; as for `CCC(NC(=O)c1c(Br)c(-c2ccccc2)nc2ccccc12)c1ccccc1` (stereo not drawn) [Example 71], 119 to 122 °C.

The next data set deals with T1, NK3 receptor (Cavia porcellus, UniProt P30098).
T1 sequence (P30098 1-440): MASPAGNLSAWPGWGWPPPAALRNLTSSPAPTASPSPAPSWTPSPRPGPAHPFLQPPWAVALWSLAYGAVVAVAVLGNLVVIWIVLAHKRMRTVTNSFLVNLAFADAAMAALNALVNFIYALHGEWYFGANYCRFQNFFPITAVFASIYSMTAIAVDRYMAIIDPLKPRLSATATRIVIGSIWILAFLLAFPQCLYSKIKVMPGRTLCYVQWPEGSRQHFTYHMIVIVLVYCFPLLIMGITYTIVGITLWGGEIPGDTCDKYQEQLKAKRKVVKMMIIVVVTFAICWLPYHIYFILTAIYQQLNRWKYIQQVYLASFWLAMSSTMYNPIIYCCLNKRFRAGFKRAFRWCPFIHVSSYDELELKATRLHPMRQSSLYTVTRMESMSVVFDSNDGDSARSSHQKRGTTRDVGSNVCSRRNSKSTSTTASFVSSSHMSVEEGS
The data set is described as follows: Binding: displacement of [3H]-Senktide / [125I]-[Me-Phe7]-NKB, guinea-pig cortex membranes. For orientation: Loss of bound radioactivity is the signal in a displacement assay; it reports binding, not function.
Procedure: The activity of the compounds of the present invention, as NK3 ligands, is determined by their ability to inhibit the binding of the radiolabelled NK3 ligands, [^125I]-[Me-Phe^7]-NKB or [^3H]-Senktide, to guinea-pig and human NK3 receptors (Renzetti et al, 1991, Neuropeptide, 18, 104-114; Buell et al, 1992, FEBS, 299(1), 90-95; Chung et al, 1994, Biochem. Biophys. Res. Commun., 198(3), 967-972). […] Binding assays provide for each compound tested a mean IC50 value of 2-5 separate experiments performed in duplicate or triplicate. […] The NK3-antagonist activity of the compounds of the present invention is determined by their ability to inhibit senktide-induced contraction of the guinea-pig ileum (Maggi et al, 1990, Br. J. PharmacoL, 101, 996-1000) and rabbit isolated iris sphincter muscle (Hall et al., 1991, Eur. J. PharmacoL, 199, 9-14) and human NK3 receptors-mediated Ca^++ mobilization (Mochizuki et al, 1994, J. Bio. Chem., 269, 9651-9658). Guinea-pig and rabbit in-vitro functional assays provide for each compound tested a mean KB value of 3-8 separate experiments, where KB is the concentration of the individual compound required to produce a 2-fold rightward shift in the concentration-response curve of senktide. Human receptor functional assay allows the determination of the concentration of the individual compound required to reduce by 50% (IC50 values) the Ca^++ mobilization induced by the agonist NKB.
`CCC(NC(=O)c1c(C)c(-c2ccccc2)nc2ccccc12)c1ccccc1` (stereo not drawn) [Example 22] came in with a Ki of 5.6 nM.
